Results reported in PubChem BioAssay (NCI).
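Cells were grown in 96-well plates and exposed to each compound for 48 hours at five concentrations; endpoints were interpolated linearly between bracketing concentrations, or set to the highest concentration if not reached. TGI denotes the concentration required for complete inhibition of growth.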

These compounds were tested on RXF 393 renal (assay: NCI anticancer screen, dose series, 48 h).

Compound | TGI [µM]
COC(=O)CC(C)(NS(=O)c1ccc(C)cc1)c1ccccc1 (stereo unspecified) | > 100
CCCCCCc1cc2cc(-c3cn4ccsc4n3)c(=O)oc2cc1O | > 94.8
O=C(O)C1C2c3ccccc3C(c3ccccc32)C1C(=O)NCC1CC1 (stereo unspecified) | > 100
COC(=O)[C@]1(C)CCC[C@@]2(C)C1CC[C@@]13C=C(C(C)C)[C@@H](CC1=O)CC23 (stereo partly specified) | 41.2
O=c1c(F)cn(Cc2c(Cl)cccc2Cl)c(=O)n1Cc1c(Cl)cccc1Cl | > 31.6
Cc1ccc2nc(-c3ccccc3)cc(=O)n2c1 | > 100
C=CCNC(=S)N/C=C(\C#N)C(N)=O | > 100
C=C1C(=O)O[C@@H]2/C=C(C)/C=C\[C@@H]3O[C@@]3(C)C[C@@H](O)C12 (stereo partly specified) | 76.4
O=c1[nH]c(=O)n(C2COC(CO)C2O)cc1F (stereo unspecified) | 60.8
O=[N+]([O-])c1ccc2nc(Nc3ccccc3)c(Nc3ccccc3)nc2c1 | 6.6
COc1ccc(C2=CC(C(C)=C(C(N)=O)C(N)=O)C=C(c3ccc(Br)cc3)C2)c(OC)c1 (stereo unspecified) | > 100
CC(C)(CN1CCCCC1)C(/C=C/c1ccc(Cl)cc1)=N\NC(=O)N/N=C(/C=C/c1ccc(Cl)cc1)C(C)(C)CN1CCCCC1 | 8.24
CC(C)C(NC(=O)Oc1ccccc1)C(=O)NC1c2c(Br)sc(Br)c2C(=O)C1O (stereo unspecified) | 7.25
CSC(=O)c1sc(SC)[n+](-c2ccccc2)c1O | 28
CC1=NN(c2nc(N)nc(COc3ccc(N)cc3)n2)C(C)(C)C1 | > 100
C[C@]12c3c4cc(NC(=O)C(=O)NCc5ccc(-c6ccccn6)nc5)cc3Oc3cc(NC(=O)C(=O)NCc5ccc(-c6ccccn6)nc5)cc(c31)OC1C=C(NC(=O)C(=O)NCc3ccc(-c5ccccn5)nc3)C=C(O4)C12 (stereo partly specified) | > 100
O=c1[nH]c(=O)c2c3n(cc2[nH]1)CCCCC3 | > 100
COc1ccc(C(C)NNC(=O)c2ccncc2)cc1OC (stereo unspecified) | > 100
C[C@]12[C@@H]3CC[C@H]1[C@@H](O)C(=O)N2CC3 | > 100
O=C(C(=O)n1ccc2ccccc21)n1ccc2ccccc21 | > 100
CCN(CC)CCCNC(=O)c1cc(-c2nccn2C)nc2ccccc12 | > 100
COc1ccc2oc3c(C)cc4c(OC)nnc(OC)c4c3c2c1 | > 100
COc1ccc(S(=O)(=O)n2c3c(c4ccccc42)[C@@H]2[C@@H](CCCN2C(=O)CS(=O)c2ccc(C)cc2)[C@H](Cl)C3)cc1 (stereo partly specified) | > 100
CC(C)=C[C@H]1C[C@H](C)[C@H]2CC[C@H](C)c3c2c1c(C)c1ncoc31 | 25.7
COc1cccc(-c2cc(=O)c3cc(N4CCCCC4)ccc3[nH]2)c1 | 1.62

Each compound was assayed on UO-31 renal (assay: NCI anticancer screen, dose series, 48 h).

Compound | TGI [µM]
COC(=O)CC(C)(NS(=O)c1ccc(C)cc1)c1ccccc1 (stereo unspecified) | > 100
CCCCCCc1cc2cc(-c3cn4ccsc4n3)c(=O)oc2cc1O | > 100
O=C(O)C1C2c3ccccc3C(c3ccccc32)C1C(=O)NCC1CC1 (stereo unspecified) | > 100
COC(=O)[C@]1(C)CCC[C@@]2(C)C1CC[C@@]13C=C(C(C)C)[C@@H](CC1=O)CC23 (stereo partly specified) | 49
O=c1c(F)cn(Cc2c(Cl)cccc2Cl)c(=O)n1Cc1c(Cl)cccc1Cl | > 31.6
Cc1ccc(Nc2nc(NNC(=O)Cc3ccccc3)nc(NNC(=O)c3ccncc3)n2)cc1 | > 10
C=CCNC(=S)N/C=C(\C#N)C(N)=O | > 100
C=C1C(=O)O[C@@H]2/C=C(C)/C=C\[C@@H]3O[C@@]3(C)C[C@@H](O)C12 (stereo partly specified) | 30.1
O=c1[nH]c(=O)n(C2COC(CO)C2O)cc1F (stereo unspecified) | > 100
O=[N+]([O-])c1ccc2nc(Nc3ccccc3)c(Nc3ccccc3)nc2c1 | 2.57
COc1ccc(C2=CC(C(C)=C(C(N)=O)C(N)=O)C=C(c3ccc(Br)cc3)C2)c(OC)c1 (stereo unspecified) | > 100
CC(C)(CN1CCCCC1)C(/C=C/c1ccc(Cl)cc1)=N\NC(=O)N/N=C(/C=C/c1ccc(Cl)cc1)C(C)(C)CN1CCCCC1 | 9.03
CC(C)C(NC(=O)Oc1ccccc1)C(=O)NC1c2c(Br)sc(Br)c2C(=O)C1O (stereo unspecified) | > 25
CSC(=O)c1sc(SC)[n+](-c2ccccc2)c1O | 31.4
CC1=NN(c2nc(N)nc(COc3ccc(N)cc3)n2)C(C)(C)C1 | > 100
Cc1cc(OC(=O)Nc2cccc3ccccc23)c(C(C)C)cc1C(=S)Nc1ccccc1 | 40.2

Compound | TGI [µM]
Cc1[nH]c(=O)nc2sc(=NC3CCCCC3)n(C3CCCCC3)c(=O)c12 | > 100
C[C@]12c3c4cc(NC(=O)C(=O)NCc5ccc(-c6ccccn6)nc5)cc3Oc3cc(NC(=O)C(=O)NCc5ccc(-c6ccccn6)nc5)cc(c31)OC1C=C(NC(=O)C(=O)NCc3ccc(-c5ccccn5)nc3)C=C(O4)C12 (stereo partly specified) | 68.6
C/C(=N\NC(N)=S)c1ccc2c(c1)Sc1ccccc1O2 | 28.3
O=c1[nH]c(=O)c2c3n(cc2[nH]1)CCCCC3 | > 100
COc1ccc(C(C)NNC(=O)c2ccncc2)cc1OC (stereo unspecified) | > 100
C[C@]12[C@@H]3CC[C@H]1[C@@H](O)C(=O)N2CC3 | > 100
O=C(C(=O)n1ccc2ccccc21)n1ccc2ccccc21 | > 100
COc1ccc(NC(=S)c2ccc(CN3CCCCC3)s2)cc1 | 35.7
Cc1ccc(S[C@@H](C)[C@@](O)(CF)CN(Cc2ccccc2)C(=O)C(F)(F)F)cc1 | 31
CCN(CC)CCCNC(=O)c1cc(-c2nccn2C)nc2ccccc12 | > 100
COc1ccc2oc3c(C)cc4c(OC)nnc(OC)c4c3c2c1 | > 100
COc1ccc(S(=O)(=O)n2c3c(c4ccccc42)[C@@H]2[C@@H](CCCN2C(=O)CS(=O)c2ccc(C)cc2)[C@H](Cl)C3)cc1 (stereo partly specified) | > 100
CCOC(=O)CCCSCCCC(=O)CCCSCCCC(=O)OCC | > 100
CC(C)=C[C@H]1C[C@H](C)[C@H]2CC[C@H](C)c3c2c1c(C)c1ncoc31 | 31.5
COc1cccc(-c2cc(=O)c3cc(N4CCCCC4)ccc3[nH]2)c1 | > 100

These compounds were tested on KM12 colon (assay: NCI anticancer screen, dose series, 48 h).

Compound | TGI [µM]
COC(=O)CC(C)(NS(=O)c1ccc(C)cc1)c1ccccc1 (stereo unspecified) | > 100
CCCCCCc1cc2cc(-c3cn4ccsc4n3)c(=O)oc2cc1O | > 100
O=C(O)C1C2c3ccccc3C(c3ccccc32)C1C(=O)NCC1CC1 (stereo unspecified) | > 100
COC(=O)[C@]1(C)CCC[C@@]2(C)C1CC[C@@]13C=C(C(C)C)[C@@H](CC1=O)CC23 (stereo partly specified) | > 100
O=c1c(F)cn(Cc2c(Cl)cccc2Cl)c(=O)n1Cc1c(Cl)cccc1Cl | > 31.6
Cc1ccc(Nc2nc(NNC(=O)Cc3ccccc3)nc(NNC(=O)c3ccncc3)n2)cc1 | > 10
Cc1ccc2nc(-c3ccccc3)cc(=O)n2c1 | > 100
C=CCNC(=S)N/C=C(\C#N)C(N)=O | > 100
C=C1C(=O)O[C@@H]2/C=C(C)/C=C\[C@@H]3O[C@@]3(C)C[C@@H](O)C12 (stereo partly specified) | 31.8
O=c1[nH]c(=O)n(C2COC(CO)C2O)cc1F (stereo unspecified) | > 100
O=[N+]([O-])c1ccc2nc(Nc3ccccc3)c(Nc3ccccc3)nc2c1 | 2.78
COc1ccc(C2=CC(C(C)=C(C(N)=O)C(N)=O)C=C(c3ccc(Br)cc3)C2)c(OC)c1 (stereo unspecified) | > 100
CC(C)(CN1CCCCC1)C(/C=C/c1ccc(Cl)cc1)=N\NC(=O)N/N=C(/C=C/c1ccc(Cl)cc1)C(C)(C)CN1CCCCC1 | 16.9
CC(C)C(NC(=O)Oc1ccccc1)C(=O)NC1c2c(Br)sc(Br)c2C(=O)C1O (stereo unspecified) | > 25
CC1=NN(c2nc(N)nc(COc3ccc(N)cc3)n2)C(C)(C)C1 | > 100
Cc1cc(OC(=O)Nc2cccc3ccccc23)c(C(C)C)cc1C(=S)Nc1ccccc1 | 36.4
Cc1[nH]c(=O)nc2sc(=NC3CCCCC3)n(C3CCCCC3)c(=O)c12 | > 100
C[C@]12c3c4cc(NC(=O)C(=O)NCc5ccc(-c6ccccn6)nc5)cc3Oc3cc(NC(=O)C(=O)NCc5ccc(-c6ccccn6)nc5)cc(c31)OC1C=C(NC(=O)C(=O)NCc3ccc(-c5ccccn5)nc3)C=C(O4)C12 (stereo partly specified) | > 100
C/C(=N\NC(N)=S)c1ccc2c(c1)Sc1ccccc1O2 | > 100
O=c1[nH]c(=O)c2c3n(cc2[nH]1)CCCCC3 | > 100
COc1ccc(C(C)NNC(=O)c2ccncc2)cc1OC (stereo unspecified) | > 100
C[C@]12[C@@H]3CC[C@H]1[C@@H](O)C(=O)N2CC3 | > 100
COc1ccc(NC(=S)c2ccc(CN3CCCCC3)s2)cc1 | 35.7
CCN(CC)CCCNC(=O)c1cc(-c2nccn2C)nc2ccccc12 | > 100
COc1ccc2oc3c(C)cc4c(OC)nnc(OC)c4c3c2c1 | > 100
COc1ccc(S(=O)(=O)n2c3c(c4ccccc42)[C@@H]2[C@@H](CCCN2C(=O)CS(=O)c2ccc(C)cc2)[C@H](Cl)C3)cc1 (stereo partly specified) | > 100
CCOC(=O)CCCSCCCC(=O)CCCSCCCC(=O)OCC | > 100
CC(C)=C[C@H]1C[C@H](C)[C@H]2CC[C@H](C)c3c2c1c(C)c1ncoc31 | 34.5
COc1cccc(-c2cc(=O)c3cc(N4CCCCC4)ccc3[nH]2)c1 | 0.783

What follows are compounds tested on OVCAR-3 ovarian (assay: NCI anticancer screen, dose series, 48 h).

Compound | TGI [µM]
COC(=O)CC(C)(NS(=O)c1ccc(C)cc1)c1ccccc1 (stereo unspecified) | > 100
CCCCCCc1cc2cc(-c3cn4ccsc4n3)c(=O)oc2cc1O | > 100
O=C(O)C1C2c3ccccc3C(c3ccccc32)C1C(=O)NCC1CC1 (stereo unspecified) | > 100
COC(=O)[C@]1(C)CCC[C@@]2(C)C1CC[C@@]13C=C(C(C)C)[C@@H](CC1=O)CC23 (stereo partly specified) | 45.9
O=c1c(F)cn(Cc2c(Cl)cccc2Cl)c(=O)n1Cc1c(Cl)cccc1Cl | > 31.6
Cc1ccc2nc(-c3ccccc3)cc(=O)n2c1 | > 100
C=CCNC(=S)N/C=C(\C#N)C(N)=O | > 100
C=C1C(=O)O[C@@H]2/C=C(C)/C=C\[C@@H]3O[C@@]3(C)C[C@@H](O)C12 (stereo partly specified) | 29.8
O=c1[nH]c(=O)n(C2COC(CO)C2O)cc1F (stereo unspecified) | > 100
COc1ccc(C2=CC(C(C)=C(C(N)=O)C(N)=O)C=C(c3ccc(Br)cc3)C2)c(OC)c1 (stereo unspecified) | > 100
CC(C)(CN1CCCCC1)C(/C=C/c1ccc(Cl)cc1)=N\NC(=O)N/N=C(/C=C/c1ccc(Cl)cc1)C(C)(C)CN1CCCCC1 | 10.7
CC(C)C(NC(=O)Oc1ccccc1)C(=O)NC1c2c(Br)sc(Br)c2C(=O)C1O (stereo unspecified) | 8.21
CSC(=O)c1sc(SC)[n+](-c2ccccc2)c1O | 26.2
Cc1cc(OC(=O)Nc2cccc3ccccc23)c(C(C)C)cc1C(=S)Nc1ccccc1 | 33.5
Cc1[nH]c(=O)nc2sc(=NC3CCCCC3)n(C3CCCCC3)c(=O)c12 | > 100
C[C@]12c3c4cc(NC(=O)C(=O)NCc5ccc(-c6ccccn6)nc5)cc3Oc3cc(NC(=O)C(=O)NCc5ccc(-c6ccccn6)nc5)cc(c31)OC1C=C(NC(=O)C(=O)NCc3ccc(-c5ccccn5)nc3)C=C(O4)C12 (stereo partly specified) | > 100
C/C(=N\NC(N)=S)c1ccc2c(c1)Sc1ccccc1O2 | 4.52
COc1ccc(C(C)NNC(=O)c2ccncc2)cc1OC (stereo unspecified) | > 100
O=C(C(=O)n1ccc2ccccc21)n1ccc2ccccc21 | > 100
COc1ccc(NC(=S)c2ccc(CN3CCCCC3)s2)cc1 | > 100
Cc1ccc(S[C@@H](C)[C@@](O)(CF)CN(Cc2ccccc2)C(=O)C(F)(F)F)cc1 | 27
COc1ccc2oc3c(C)cc4c(OC)nnc(OC)c4c3c2c1 | > 100
COc1ccc(S(=O)(=O)n2c3c(c4ccccc42)[C@@H]2[C@@H](CCCN2C(=O)CS(=O)c2ccc(C)cc2)[C@H](Cl)C3)cc1 (stereo partly specified) | > 100
CCOC(=O)CCCSCCCC(=O)CCCSCCCC(=O)OCC | > 100
CC(C)=C[C@H]1C[C@H](C)[C@H]2CC[C@H](C)c3c2c1c(C)c1ncoc31 | 28.7
COc1cccc(-c2cc(=O)c3cc(N4CCCCC4)ccc3[nH]2)c1 | 13.3
